Data published in patent US20120115774A1, “ANTIMICROBIAL CATIONIC LIPO-BETA-PEPTIDES” (UNIVERSITY OF MANITOBA, priority 2009, published 2012).
≈ marks a conversion by molar mass, not a printed value. Like-named read-outs stand apart in the source and are kept apart here.

Assays:
S. aureus ATCC 29213 = assay type: cell-based, Staphylococcus aureus
Experimental: (§1) Antibacterial activity against Gram positive and Gram negative microorganisms was investigated via broth macrodilution tests using CLSI methodology (Zhanel et al., 2008). Stock solutions of lipopeptide antibiotics in water were brought to a standard 512 μg/mL, with only βC12-KLLK and βC16-KAAK requiring a minute amount of DMSO. Organisms were subcultured and isolated on blood agar, suspended in 3 mL of Mueller-Hinton broth at the turbidity of a […], and diluted to approximately 10^5 CFU/mL before introduction into tubes containing serially diluted lipopeptide antibiotic in Mueller-Hinton broth. Activity testing against S. pneumoniae used broth supplemented with laked horse blood to give 5% horse blood in experimental tubes. The turbidity resulting from lipopeptide solution in broth required the creation of control tubes lacking microbes serving as turbidity controls. All tubes were incubated overnight for 16-20 h at 37° C. Colony counts of diluted 10^5 CFU/mL solution of microorganism confirmed the validity of the trial with colony counts expected in the 10^5 CFU/mL range and also incubated overnight in a CO2 incubator at 37° C. and 5% CO2.

[1] = test system: S. epidermidis ATCC 14990; assay type: cell-based, Staphylococcus epidermidis
Experimental: as §1

[2] = test system: E. coli (Amikacin MIC 32 μg/mL) CAN-ICU 63074; assay type: cell-based
Experimental: as §1

[3] = test system: E. coli (Gentamicin resistant-Gent R) CAN-ICU 61714; assay type: cell-based
Experimental: as §1

E. coli ATCC 25922 = assay type: cell-based
Experimental: as §1

[4] = test system: methicillin-resistant Staphylococcus aureus (MRSA) ATCC 33592; assay type: cell-based
Experimental: as §1

[5] = test system: methicillin-resistant Staphylococcus epidermidis (MRSE) CAN-ICU 61589; assay type: cell-based
Experimental: as §1

E. faecalis ATCC 29212 = assay type: cell-based, Enterococcus faecalis
Experimental: as §1

E. faecium ATCC 27270 = assay type: cell-based, Enterococcus faecium
Experimental: as §1

S. pneumoniae ATCC 49619 = assay type: cell-based, Streptococcus pneumoniae
Experimental: as §1

[6] = test system: P. aeruginosa (Gent-R) CAN-ICU 62308; assay type: cell-based, Pseudomonas aeruginosa
Experimental: as §1

P. aeruginosa ATCC 27853 = assay type: cell-based, Pseudomonas aeruginosa
Experimental: as §1

[7] = test system: S. maltophilia CAN-ICU 62584; assay type: cell-based, Stenotrophomonas maltophilia
Experimental: as §1

[8] = test system: A. baumannii CAN-ICU 63169; assay type: cell-based, Acinetobacter baumannii
Experimental: as §1

[9] = test system: E. coli (Amikacin MIC 32 μg/mL) CAN-ICU 63074; details: strain description, clinical isolate of CAN-ICU study; cited from earlier work
[10] = test system: methicillin-resistant Staphylococcus epidermidis (MRSE) CAN-ICU 61589; details: strain description, clinical isolate of CAN-ICU study; cited from earlier work
K. pneumoniae ATCC 13883 = assay type: cell-based, Klebsiella pneumoniae; details: Mueller-Hinton broth, 16-20 h at 37° C.
Experimental: as §1

[11] = Amikacin MIC 32 μg/mL) CAN-ICU 63074
[12] = Gentamicin resistant-Gent R) CAN-ICU 61714
[13] = methicillin-resistant CAN-ICU 61589
[14] = Mueller-Hinton broth, 16-20 h at 37° C.

Molecule	MIC, S. aureus ATCC29213 (S. aureus ATCC 29213; ATCC 29213) [µg/mL]	MIC, S. epidermidis ATCC14990 ([1]; ATCC 14990) [µg/mL]	MIC, E. coli CAN-ICU 63074 [2, 11] [µg/mL]	MIC, E. coli CAN-ICU 61714 [3, 12] [µg/mL]	MIC, E. coli ATCC25922 (E. coli ATCC 25922; ATCC 25922) [µg/mL]	MIC, MRSA ATCC33592 ([4]; ATCC 33592) [µg/mL]	MIC, MRSE CAN-ICU 61589 [5, 13] [µg/mL]	MIC, E. faecalis ATCC29212 (E. faecalis ATCC 29212) [µg/mL]	MIC, E. facium ATCC27270 (E. faecium ATCC 27270) [µg/mL]	MIC, S. pneumoniae ATCC49619 (S. pneumoniae ATCC 49619; ATCC 49619) [µg/mL]	MIC, P. aeruginosa CAN-ICU 62308 ([6]; Gent-R) CAN-ICU 62308) [µg/mL]	MIC, P. aeruginosa ATCC27853 (P. aeruginosa ATCC 27853; ATCC 27853) [µg/mL]	MIC, S. maltophilia CAN-ICU 62584 ([7]; CAN-ICU 62584) [µg/mL]	MIC, A. baumannii CAN-ICU 63169 ([8]; CAN-ICU 63169) [µg/mL]	other results
CCCCCCCCCCCC(=O)N[C@@H](CCCCN)CC(=O)N[C@H](CC(=O)N[C@H](CC(=O)N[C@@H](CCCCN)CC(N)=O)CC(C)C)CC(C)C [(β)C12-KLLK]	32 (≈ 43.4 µM)	16 (≈ 21.7 µM)	64 (≈ 86.7 µM)	64 (≈ 86.7 µM)	64 (≈ 86.7 µM)	32 (≈ 43.4 µM)	32 (≈ 43.4 µM)	64 (≈ 86.7 µM)	32 (≈ 43.4 µM)	128 (≈ 173 µM)	128 (≈ 173 µM)	128 (≈ 173 µM)	256 (≈ 347 µM)	>128	–
CCCCCCCCCCCCCCCC(=O)N[C@@H](CCCCN)CC(=O)N[C@@H](C)CC(=O)N[C@@H](C)CC(=O)N[C@@H](CCCCN)CC(N)=O [(β)C16-KAAK]	64 (≈ 90.1 µM)	8 (≈ 11.3 µM)	64 (≈ 90.1 µM)	64 (≈ 90.1 µM)	64 (≈ 90.1 µM)	32 (≈ 45.1 µM)	16 (≈ 22.5 µM)	32 (≈ 45.1 µM)	32 (≈ 45.1 µM)	>64	128 (≈ 180 µM)	256 (≈ 361 µM)	>128	256 (≈ 361 µM)	–
CCCCCCCCCCCCCCCC(=O)N[C@@H](CCCCN)CC(=O)NCCC(=O)NCCC(=O)N[C@@H](CCCCN)CC(N)=O [(β)C16-KGGK]	16 (≈ 23.5 µM)	8 (≈ 11.7 µM)	32 (≈ 46.9 µM)	32 (≈ 46.9 µM)	32 (≈ 46.9 µM)	32 (≈ 46.9 µM)	16 (≈ 23.5 µM)	32 (≈ 46.9 µM)	32 (≈ 46.9 µM)	128 (≈ 188 µM)	>64	64 (≈ 93.8 µM)	256 (≈ 375 µM)	128 (≈ 188 µM)	–
CCCCCCCCCCCCCCCC(=O)N[C@@H](CCCCN)CC(=O)N[C@@H](CCCCN)CC(=O)N[C@@H](CCCCN)CC(=O)N[C@@H](CCCCN)CC(N)=O [(β)C16-KKKK]	16 (≈ 19.4 µM)	4 (≈ 4.85 µM)	32 (≈ 38.8 µM)	32 (≈ 38.8 µM)	16 (≈ 19.4 µM)	16 (≈ 19.4 µM)	4 (≈ 4.85 µM)	32 (≈ 38.8 µM)	16 (≈ 19.4 µM)	128 (≈ 155 µM)	128 (≈ 155 µM)	64 (≈ 77.6 µM)	256 (≈ 311 µM)	256 (≈ 311 µM)	–
NCC[C@H](O)C(=O)N[C@@H]1C[C@H](N)[C@@H](O[C@H]2O[C@H](CN)[C@@H](O)[C@H](O)[C@H]2O)[C@H](O)[C@H]1O[C@H]1O[C@H](CO)[C@@H](O)[C@H](N)[C@H]1O [Amikacin]	–	–	–	–	–	–	–	–	–	–	–	–	–	–	Amikacin MIC of E. coli CAN-ICU 63074 [9]: 32 µg/mL
Cc1nnc(SCC2=C(C(=O)O)N3C(=O)[C@@H](NC(=O)Cn4cnnn4)[C@H]3SC2)s1 [Cefazolin]	–	–	–	–	–	–	–	–	–	–	–	–	–	–	Cefazolin-CZ MIC of MRSE CAN-ICU 61589 [10]: > 32 µg/mL
Gentamicin [reference compound]	–	–	–	–	–	–	–	–	–	–	–	–	–	–	MIC, S. aureus ATCC29213 (S. aureus ATCC 29213; [14]): 1 µg/mL; MIC, S. epidermidis ATCC14990 [1, 14]: 0.25 µg/mL; MIC, E. coli CAN-ICU 63074 [2, 14]: 8 µg/mL; MIC, E. coli CAN-ICU 61714 ([3]; Gentamicin resistant strain, Mueller-Hinton broth, 16-20 h at 37° C.): 128 µg/mL; MIC, E. coli ATCC25922 (E. coli ATCC 25922; [14]): 1 µg/mL; MIC, MRSA ATCC33592 [4, 14]: 2 µg/mL; MIC, MRSE CAN-ICU 61589 [5, 14]: 32 µg/mL; MIC, S. pneumoniae ATCC49619 (S. pneumoniae ATCC 49619; broth supplemented with laked horse blood (5% horse blood), 16-20 h at 37° C.): 4 µg/mL; MIC, P. aeruginosa CAN-ICU 62308 ([6]; Gent-R strain, Mueller-Hinton broth, 16-20 h at 37° C.): 128 µg/mL; MIC, P. aeruginosa ATCC27853 (P. aeruginosa ATCC 27853; [14]): 8 µg/mL; MIC, S. maltophilia CAN-ICU 62584 [7, 14]: >512 µg/mL; MIC, A. baumannii CAN-ICU 63169 [8, 14]: 128 µg/mL; MIC, S. pneumoniae ATCC13883 (K. pneumoniae ATCC 13883): 0.25 µg/mL
